Results reported in PubChem BioAssay (NCI).
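These data come from cells grown in 96-well plates and exposed to compound for 48 hours at five concentrations. At the GI50, growth is halved. Definition used: TGI = concentration required for complete inhibition of growth.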

What was measured:
Experiment in all cases: NCI tumour cell line growth inhibition, 48 h
SK-MEL-5 melanoma = tested on: SK-MEL-5 melanoma
ACHN renal = tested on: ACHN renal
M14 melanoma = tested on: M14 melanoma
EKVX NSCLC = tested on: EKVX NSCLC
SK-MEL-28 melanoma = tested on: SK-MEL-28 melanoma
RXF 393 renal = tested on: RXF 393 renal
NCI-H460 lung = tested on: NCI-H460 lung
UACC-62 melanoma = tested on: UACC-62 melanoma
A498 renal = tested on: A498 renal
MDA-MB-435 = tested on: MDA-MB-435

| SMILES | TGI (SK-MEL-5 melanoma) [µM] | TGI (ACHN renal) [µM] | TGI (M14 melanoma) [µM] | TGI (EKVX NSCLC) [µM] | TGI (SK-MEL-28 melanoma) [µM] | TGI (RXF 393 renal) [µM] | TGI (NCI-H460 lung) [µM] | TGI (UACC-62 melanoma) [µM] | TGI (A498 renal) [µM] | GI50 (SK-MEL-5 melanoma) [µM] | GI50 (ACHN renal) [µM] | GI50 (A498 renal) [µM] | GI50 (M14 melanoma) [µM] | GI50 (EKVX NSCLC) [µM] | GI50 (SK-MEL-28 melanoma) [µM] | GI50 (RXF 393 renal) [µM] | GI50 (NCI-H460 lung) [µM] | GI50 (UACC-62 melanoma) [µM] | GI50 (MDA-MB-435) [µM] | TGI (MDA-MB-435) [µM] |
| --- | --- | --- | --- | --- | --- | --- | --- | --- | --- | --- | --- | --- | --- | --- | --- | --- | --- | --- | --- | --- |
| Cc1cc2c(=O)cc(-c3ccc(Cl)cc3)oc2c(C(=O)O)c1C | > 100 | > 100 | > 100 | > 100 | > 100 | > 100 | > 100 | > 100 | – | – | – | – | – | – | – | – | – | – | – | – |
| Cc1c(Cl)cccc1NC(=O)C(=O)C1C(=O)NC(=O)NC1=O | > 100 | > 100 | > 100 | > 100 | > 100 | > 100 | > 100 | > 100 | > 100 | – | – | – | – | – | – | – | – | – | – | – |
| CC(CN(CP(=O)([O-])[O-])CP(=O)([O-])[O-])N(CP(=O)([O-])[O-])CP(=O)([O-])[O-].N[C@@H]1CCCC[C@@H]1N.[Pt+2] (stereo unspecified) | > 100 | > 100 | > 100 | > 100 | > 100 | > 100 | > 100 | > 100 | > 100 | > 100 | > 100 | > 100 | > 100 | > 100 | > 100 | > 100 | > 100 | > 100 | – | – |
| NC(=O)NC(=O)CI | 26.4 | 3.39 | 17.4 | – | 26.2 | 18.3 | 37.3 | 18.7 | 31.7 | 12.9 | 1.78 | 15 | 5.12 | – | 13 | 5.97 | 18.5 | 5.38 | 4.02 | 15.9 |
| Cc1ccc(/C=C2\CCOC2=O)cc1 | > 100 | > 100 | > 100 | – | > 100 | > 100 | > 100 | > 100 | 97.3 | > 100 | > 100 | 11.8 | > 100 | – | > 100 | > 100 | > 100 | > 100 | – | – |
| Cc1c2c(nn1-c1ccc(S/N=C3\SCC(=O)CN3c3ccccc3)cc1)-c1ccccc1CC2 | 22.3 | > 50 | 43.7 | > 50 | > 50 | > 50 | > 50 | > 50 | – | 8.11 | 24.1 | – | 13.4 | > 50 | 28.5 | 31.5 | 15.2 | 16 | 16.8 | > 50 |
| CCCCCCCCCCCCC(Br)C(=O)SCCNC(=O)CCNC(=O)[C@@H](O)C(C)(C)COP(=O)(O)OP(=O)(O)OCC1OC(n2cnc3c(N)ncnc32)C(O)C1OP(=O)(O)O (stereo partly specified) | > 56.5 | > 56.5 | > 56.5 | > 56.5 | > 56.5 | > 56.5 | > 56.5 | > 56.5 | > 56.5 | – | – | – | – | – | – | – | – | – | – | – |
| COc1nc2c(nc(N)n2C2OC(CO)C(O)C(O)C2O)c(=O)n1C (stereo unspecified) | > 100 | > 100 | > 100 | > 100 | > 100 | > 100 | > 100 | > 100 | > 100 | – | – | – | – | – | – | – | – | – | – | – |
| O=C1NC(=NCCc2ccccc2Cl)S/C1=C\c1ccc2ncccc2c1 | 24.6 | > 25 | > 25 | – | > 25 | > 25 | > 25 | > 25 | 17.6 | 6.92 | 6.5 | 3.68 | 6.48 | – | 10.7 | 4.85 | 6.34 | 6.49 | 1.45 | 9.81 |
| O=C(NC(=S)NS(=O)(=O)c1ccc(N2N=C3c4ccccc4CC3C2c2cccs2)cc1)c1ccccc1 (stereo unspecified) | 46.5 | – | 58.9 | > 100 | > 100 | > 100 | > 100 | 36.8 | – | 16.9 | – | – | 21.5 | 19.6 | 84 | 54 | > 100 | 14.6 | 21.7 | 60.6 |
| CC(C)(C)c1ccccc1NS(=O)(=O)c1ccccc1 | > 100 | > 100 | > 100 | > 100 | > 100 | > 100 | > 100 | > 100 | > 100 | – | – | – | – | – | – | – | – | – | – | – |
| Cn1c(=O)c(Cc2ccc(F)cc2F)cc2cnc(NC3CCOCC3)nc21 | > 25 | > 25 | > 25 | – | > 25 | > 25 | > 25 | > 25 | > 25 | 11.8 | > 25 | 12.3 | > 25 | – | > 25 | 18.5 | > 25 | > 23.8 | > 25 | > 25 |
| CCOc1ccc(NC(=O)C2=C(C)NC(C)=C(C(=O)Nc3ccc(OCC)cc3)C2c2ccc([N+](=O)[O-])cc2)cc1 | 74.3 | 87.4 | > 100 | > 100 | > 100 | > 100 | > 100 | – | 66.2 | – | – | – | – | – | – | – | – | – | – | – |
| CCCCCCCCCCCCCC(=O)OCC1OC(OC)C(NC(=O)N(CCCl)N=O)C(O)C1O (stereo unspecified) | 45.1 | 49.1 | 39.6 | – | 59.4 | 32.1 | 25.1 | 20.1 | 65.6 | – | – | – | – | – | – | – | – | – | – | – |
| CN(C)/[N+]([O-])=N/Oc1cc(Nc2ccc(C(=O)O)cc2)c([N+](=O)[O-])cc1[N+](=O)[O-] | 41.3 | 62.4 | – | 46.8 | 57.5 | 47.8 | > 100 | 32.2 | – | 20.2 | 26.7 | – | – | 20.1 | 30.7 | 22.8 | 32.2 | 17.9 | 19.8 | 39.2 |
| Cc1cc(S(N)(=O)=O)c(S/C(=N\NS(=O)(=O)c2ccc(Cl)cc2)c2ccc(Cl)cc2)cc1Cl | > 100 | > 100 | > 100 | > 100 | > 100 | > 100 | > 100 | > 100 | – | > 100 | 38.6 | – | > 100 | > 100 | > 100 | > 100 | > 100 | > 100 | > 100 | > 100 |
